From article PMC10135050, “Neutralizing Carbapenem Resistance by Co-Administering Meropenem with Novel β-Lactam-Metallo-β-Lactamase Inhibitors” (Antibiotics, 2023)
Blank lines part the entries; values can stand above or below the compound they belong to.

Legend:
[1] = design: method as in PMID 32179522; details: cited from earlier work
[2] = molecular target: T1, Recombinant human glyoxylase II (Glo2) (Homo sapiens, UniProt Q16775); test: Non-specific binding to zinc in non-MBLs, glyoxylase II activity; type: biochemical; details: 50–500 µM
T1 construct: purchased BioVision Inc., Waltham, MA, USA
From the text: Metal chelators are known to suffer from off-target specificity and as a result have been criticized as potential MBLIs in vivo [44].
The methodology has been previously described. EDTA (purchased from Merck KGaA, Darmstadt, Germany) was included as a positive control.

[3] = in vivo; cited from earlier work
[4] = design: method as in PMID 26849010, PMID 32903882; details: cited from earlier work

SMILES: COC(=O)C(CC(=O)N[C@@H]1C(=O)N2C(C(=O)O)=C(C[n+]3ccccc3)CS[C@H]12)N1CCN(CC(=O)O)CCN(CC(=O)O)CC1 (some centres unmarked) [BP1]
- Decrease in the bacterial load in vivo [1]: approximately 3 log10 units

- Glyoxylase II activity [2]: significantly reduced
SMILES: O=C(O)CN(CCN(CC(=O)O)CC(=O)O)CC(=O)O [EDTA, reference compound]

SMILES: O=C(O)CN1CCN(CC(=O)O)CCN(CC(=O)O)CC1 [NOTA]
- Bioavailability [3]: poor bioavailability

SMILES: c1ccc(CN(CCN(Cc2ccccn2)Cc2ccccn2)Cc2ccccn2)nc1 [TPEN, N,N,N′,N′-Tetrakis (2-Pyridylmethyl) Ethylenediamine]
- Cytotoxicity [4]: cytotoxicity

SMILES: CN(C[C@H](O)[C@@H](O)[C@H](O)[C@H](O)CO)C(=O)c1ccc(CN(Cc2ccccn2)Cc2ccccn2)nc1 [ZN148]
- Decrease in the bacterial load in vivo [1]: approximately 3 log10 units
